Laboratory results reported in US4230719A, “Novel 2-[4-(3-methyl-2-thienyl)phenyl]propionic acid and pharmaceutically acceptable salt thereof and method for treating symptoms of inflammation and pain” (Toyama Chemical Co., Ltd., priority 1977, dated 1980).
Read-outs that look alike come from different tables or passages of the source.

Tests used:
[1] = tested on: phenylbenzoquinone writhing; assay: Analgesic activity, phenylbenzoquinone method in mouse; assay type: in vivo, mouse (ddY strain, male); conditions: for Frequency of writhing, mean ± S.E.: during 10 minutes
Procedure: (i) Phenylbenzoquinone method in mouse
The test compound was orally administered to each ddY strain male mouse (weighing 22±2 g; 8 mice per group). […] The frequency of writhing during 10 minutes from 5-minutes after the injection of phenylbenzoquinone was measured and compared with that of a control group to which a 0.5% Tween 80 solution was administered. The percent inhibition was calculated by the following equation: [formula]

[2] = tested on: Carrageenin-induced edema; assay: Carrageenin-induced edema; assay type: in vivo, rat (Donryu strain, male); conditions: Rattus norvegicus, po, read-out: Inhibitory percent of swelling; for inhibition in vivo at 15 mg/kg: 15 mg/kg p.o.
Procedure: (iii) Carrageenin-induced edema
Each of the 6 Donryu strain male rats per group (each weighing about 140 g), which had been fasted overnight, was orally loaded with 4 ml of water and, after 30 minutes, the test compound was orally administered thereto. Thirty minutes thereafter, a 1%(Wt/V) solution of carrageenin in physiological saline was subcutaneously injected into the subplantar region of the left hind paw. At a time interval of one hour, starting from the end of the first hour till the end of the fifth hour after injection of carrageenin, the paw volume was measured by means of a manometer and pressure transducer. By comparison with the percent increase in swelling of the control group of rats to which a 0.5%(V/V) solution of Tween 80 had been administered, the mean inhibitory percent in 5 hours of swelling was calculated by the following equation: [formula]

[3] = tested on: pain threshold (brewer's yeast, hind paw); assay: Analgesic activity, Randall-Selitto method in rat; assay type: in vivo, rat (Wistar strain, male); conditions: for Inhibition: 100% = pain threshold raised by 150 g; for ED50: Rattus norvegicus, po
Procedure: (ii) Randall-Selitto method in rat
After one hour, the test compound was orally administered. One hour thereafter, the pain threshold value was measured four times at a time interval of one hour. The mean value of four values obtained was taken as the pain threshold value of each group of rats. The activity of the drug was assumed to be 100% when the pain threshold value was raised by 150 g.

Vascular permeability [4] = assay: Vascular permeability in rat (Whittle's method); assay type: in vivo, rat (Wistar strain, male); conditions: for ED30: Rattus norvegicus, po
Procedure: (ii) Vascular permeability in rat (Whittle's method)
The test compound was orally administered to each Wistar strain male rat (weighing about 150 g) which had been fasted overnight. After 55 minutes, 0.5 ml of a 0.5% Evans Blue solution was intravenously injected. Five minutes thereafter, 0.2 ml/100 g of a 3%(V/V) acetic acid solution was intraperitoneally injected. After 60 minutes from the injection of the acetic acid solution, the rats were killed by suffocation with chloroform. After immediate laparotomy, the dye leaked into the peritoneal cavity was washed out with physiological saline. The washings were made up with the saline to 30 ml and the absorbance at 640 mμ was measured to examine the effect of the test compounds by comparing the amounts of leaked dye per rat with one another.

[5] = tested on: threshold value of pain due to pressure stimuli (tail); conditions: for Analgesic effect: 100% = threshold raised by 160 g; for ED50: Mus musculus, po
Vascular permeability [6] = assay: Vascular permeability in mice (Whittle's method); assay type: in vivo, mouse (ddY strain, male); conditions: for ED30: Mus musculus, po; for Inhibition: dye leakage
Procedure: (i) Vascular permeability in mice (Whittle's method)
The test compound was orally administered to each ddY strain male mouse (weighing each about 20 g). After 20 minutes, 0.1 ml/10 g of a 4%(Wt/V) solution of Pontamine Sky Blue in physiological saline was intravenously injected and 10 minutes thereafter 0.1 ml/10 g of a 0.7%(V/V) solution of acetic acid in physiological saline was injected intraperitoneally. After 30 minutes, the mice were killed by suffocation with chloroform. After immediate laparotomy, the dye leaked into the peritoneal cavity was washed out with distilled water. The washings were made up with water to 30 ml and the absorbance at 620 mμ was measured. The amount of leaked dye per 20 g of mouse weight was compared.

[7] = tested on: fever (Mycobacterium butyricum); assay: Antipyretic action; assay type: in vivo, rat (Wistar strain, female); conditions: for ED1.0: Rattus norvegicus, po
Procedure: A suspension (0.6 mg/0.1 ml) of killed and dried Mycobacterium butyricum in liquid paraffin was subcutaneously injected in an amount of 0.1 ml into the subplantar region of the hind paw of each Wistar strain female rat weighing about 180 g. After 14 hours, the fevered rats were divided into groups, and each test compound was orally administered to each group to examine the antipyretic effect.

Adjuvant arthritis = assay: Adjuvant arthritis; assay type: in vivo, rat (Sprague-Dawley strain, male); conditions: 1 mg/kg p.o./day, mean during one week
Procedure: A suspension containing 6 mg/ml of killed and dried Mycobacterium butyricum in liquid paraffin was subcutaneously injected into the subplantar region of the left hind paw of Sprague-Dawley strain male rats (weighing 180 to 200 g) in a proportion of 0.1 ml/rat. After 14 days, the rats having inflammatory paws of similar volumes were selected and the test compound was orally administered to the rats repeatedly at the rate shown in Table 4 during one week and the mean inhibitory percent of swelling during one week was determined.

[8] = tested on: Phenol Red (PSP) excretion; assay: Uricosuric action (a), inhibition of Phenol Red (PSP) excretion; assay type: in vivo, rabbit (male); conditions: dose not stated
Procedure: (a) The action was examined by the method of B. B. Brodie et al. who reported that the inhibitory action on Phenol Red (PSP) excretion correlates with the uricosuric action [Proc. Soc. Exp. Biol. Med., 86, 884 (1954)]. To a male rabbit weighing 2 to 3 kg was intraperitoneally administered the test compound. After 30 minutes, 75 mg/kg of a Phenol Red suspension was injected into the pinna vein of the rabbit and 30 minutes thereafter a blood sample was drawn from the pinna vein. The blood sample was centrifuged and the serum was diluted with physiological saline. The diluted serum was treated with 0.1 N NaOH to develop the color. The concentration of Phenol Red in the serum was determined from the absorbance at 560 mμ.

in vivo = conditions: rat, po
[9] = Mus musculus, po, 10 min, writhing, 40 mg/kg p.o.
[10] = Mus musculus, po, 10 min, read-out: Inhibition

| Compound | Frequency of writhing, mean ± S.E. ([1]; 20 mg/kg p.o.) | Frequency of writhing, mean ± S.E. ([1]; 40 mg/kg p.o.) | inhibition in vivo at 40 mg/kg [1, 9] [%] | ED50 ([1]; po, mouse, read-out: ED50) [mg/kg] | inhibition in vivo at 5 mg/kg ([2]; 5 mg/kg p.o., mean in 5 hours) [%] | inhibition in vivo at 15 mg/kg ([2]; mean in 5 hours) [%] | Frequency of writhing, mean ± S.E. ([1]; 5 mg/kg p.o.) | Frequency of writhing, mean ± S.E. ([1]; 10 mg/kg p.o.) | ED50 ([1]; Mus musculus, po) [mg/kg] | inhibition in vivo at 5 mg/kg [1, 10] [%] | inhibition in vivo at 20 mg/kg [1, 10] [%] | Inhibition ([3]; 1 mg/kg p.o.) [%] | Inhibition ([3]; 5 mg/kg p.o.) [%] | Inhibition ([3]; 25 mg/kg p.o.) [%] | ED50 [3] [mg/kg] | inhibition in vivo at 1 mg/kg ([2]; 5 h) [%] | inhibition in vivo at 5 mg/kg ([2]; 5 h) [%] | Inhibition (Vascular permeability [4]; 1 mg/kg p.o.) [%] | Analgesic effect ([5]; 20 mg/kg p.o.) [%] | ED50 [5] [mg/kg] | further results |
| --- | --- | --- | --- | --- | --- | --- | --- | --- | --- | --- | --- | --- | --- | --- | --- | --- | --- | --- | --- | --- | --- |
| CC(C(=O)O)c1ccc(-c2ccc(Cl)s2)cc1 (stereo not shown) [Compound C8] | 17.5 ± 4.2 | 6.3 ± 0.6 | 73.3 | 27 | 17 | 41.9 |  |  |  |  |  |  |  |  |  |  |  |  |  |  | inhibition in vivo at 20 mg/kg ([1]; Mus musculus, po, 10 min, writhing, 20 mg/kg p.o., read-out: Inhibition): 25.8% |
| O=C(O)Cc1ccc(-c2cccs2)cc1 [Compound C9] |  | 13.9 ± 1.6 | 41.1 | > 40 | 15.1 | 24.1 |  |  |  |  |  |  |  |  |  |  |  |  |  |  |  |
| O=C(O)Cc1ccccc1Nc1c(Cl)cccc1Cl [Diclofenac sodium] | 10.9 ± 1.7 |  |  |  |  |  | 21.4 ± 3.0 | 16.2 ± 3.1 | 17.7 | 9.3 | 53.8 | 22.7 | 49.7 | 74.9 | 5.3 | 6.4 | 39.8 | 5.4 | 71 | 9.5 | Inhibition (Vascular permeability [4]; 5 mg/kg p.o.): 30.2%; ED30 (Vascular permeability [4]): 4.8 mg/kg; Analgesic effect ([5]; 5 mg/kg p.o.): 31%; Dye leakage (P.S.B.) mean ± S.E. (Vascular permeability [6]; 10 mg/kg p.o.): 227.0 ± 14.4 μg/20g; Dye leakage (P.S.B.) mean ± S.E. (Vascular permeability [6]; 20 mg/kg p.o.): 205.3 ± 10.1 μg/20g; ED30 (Vascular permeability [6]): 14 mg/kg; Inhibition (Vascular permeability [6]; 5 mg/kg p.o.): 5.4%; Inhibition (Vascular permeability [6]; 20 mg/kg p.o.): 36.0%; Mean decrease in temp. ([7]; 0.2 mg/kg p.o.): 0.88 °C; Mean decrease in temp. ([7]; 1 mg/kg p.o.): 1.63 °C; Mean decrease in temp. ([7]; 5 mg/kg p.o.): 1.57 °C; ED1.0 [7]: 0.25 mg/kg; Inhibitory percent of swelling (Adjuvant arthritis): 10.9% |
| CC(C)Cc1ccc(C(C)C(=O)O)cc1 (stereo not shown) [Ibuprofen] |  |  |  |  |  |  |  |  |  |  |  |  |  |  |  |  |  |  | 36 | 44.5 | Analgesic effect ([5]; 80 mg/kg p.o.): 60% |
| COc1ccc2c(c1)c(CC(=O)O)c(C)n2C(=O)c1ccc(Cl)cc1 [Indomethacin] | 5.4 ± 2.1 |  |  |  |  |  | 13.8 ± 2.9 | 9.1 ± 3.1 | 7 | 41.5 | 77.1 | 27.4 | 41.6 | 75.6 | 6.3 | 6.4 | 46.2 | 32.5 | 80 | 6 | Uricosuric action (in words) [8]: very weak; inhibition in vivo at 10 mg/kg [1, 10]: 61.4%; Inhibition (Vascular permeability [4]; 0.5 mg/kg p.o.): 20.7%; Inhibition (Vascular permeability [4]; 5 mg/kg p.o.): 47.7%; ED30 (Vascular permeability [4]): 1 mg/kg; Analgesic effect ([5]; 5 mg/kg p.o.): 44%; Dye leakage (P.S.B.) mean ± S.E. (Vascular permeability [6]; 5 mg/kg p.o.): 240.5 ± 25.9 μg/20g; Dye leakage (P.S.B.) mean ± S.E. (Vascular permeability [6]; 10 mg/kg p.o.): 204.5 ± 17.6 μg/20g; Dye leakage (P.S.B.) mean ± S.E. (Vascular permeability [6]; 20 mg/kg p.o.): 176.4 ± 17.0 μg/20g; ED30 (Vascular permeability [6]): 6.8 mg/kg; Inhibition (Vascular permeability [6]; 5 mg/kg p.o.): 25.0%; Inhibition (Vascular permeability [6]; 10 mg/kg p.o.): 36.3%; Inhibition (Vascular permeability [6]; 20 mg/kg p.o.): 45.0%; LD50 (in vivo): 16.2 mg/kg; Mean decrease in temp. ([7]; 0.2 mg/kg p.o.): 0.25 °C; Mean decrease in temp. ([7]; 1 mg/kg p.o.): 0.87 °C; Mean decrease in temp. ([7]; 5 mg/kg p.o.): 1.35 °C; ED1.0 [7]: 1.06 mg/kg |
| CC(C(=O)O)c1cccc(C(=O)c2ccccc2)c1 (stereo not shown) [Ketoprofen] |  |  |  |  |  |  |  |  |  |  |  |  |  |  |  |  |  |  |  | 19.5 | Analgesic effect ([5]; 10 mg/kg p.o.): 40%; Analgesic effect ([5]; 40 mg/kg p.o.): 61% |
